This is an account of results in US20240034717A1, “NOVEL POTASSIUM CHANNEL INHIBITORS” (Saniona A/S, priority 2020, published 2024).

Several values for one entry are separate records, joined by “and”; a condition that tells them apart may be missing. Identical values can stand only once.

In data set [1] the target is erythrocyte KCa3.1 channels (Homo sapiens (Human), UniProt O15554). The data set is described as follows: Erythrocyte KCa3.1 assay. The format is cell-based. The following applies: human erythrocytes, A23187-activated KCa3.1; read-out: RBC K (in vitro) Human IC50 (μM) Potency category. The protocol: Human blood was drawn from healthy human volunteers in a standard heparinized blood sampling vial (Vacutainer, Li/heparin, ED Bioscience, Plymouth, UK). The erythrocytes were packed by centrifugation, and the plasma and buffy coat were removed by aspiration. Erythrocytes were washed three times in the experimental salt solution and then stored at 0° C. until use. Blood samples from NMRI mice or from Wistar rats were treated similarly. The methodological principle is outlined in Macey et al. (1978) and further described in Strøbaek et al. (2013). Activation of the erythrocyte KCa3.1 channels were obtained by addition of the Ca^2+ ionophore A23187, which causes synchronized hyperpolarization, which is reported as a CCCP-mediated shift in the unbuffered extracellular pH of the erythrocyte suspension. Standard procedure: 3 mL unbuffered experimental salt solution (in mM: 2 KCl, 154 NaCl, 0.05 CaCl2) was heated to 37° C. with stirring. Packed erythrocytes were added (50 μL, final cytocrit 1.5%), and the extracellular pH (pHo) followed with a glass/calomel (pHG200-8/REF200, Radiometer, Denmark) electrode pair. CCCP (3 μL, final concentration 20 μM) was added followed by varying concentrations of test compounds (DMSO concentration constant). After pH stabilization at ˜7.2, A23187 (3 μL, final concentration 0.33 μM) was added to initiate the experiment. After the peak hyperpolarization was attained, the intracellular pH (pHi constant during the experiment) was found by haemolysing the erythrocytes via addition of 100 μL of Triton-X100.
The erythrocyte membrane potential, Vm, was calculated according to: […]
and the fractional remaining Ca^2+-activated K^+-conductance at the concentration C of blocker, fGK(C), was calculated from
where the K^+ equilibrium potential EK=−107 mV, the Cl^− equilibrium potential ECl=−12 mV and the Vm(0) and Vm(C) are the peak hyperpolarizations in the control and in the presence of a concentration of C of blocker respectively.
IC50 values for compounds were calculated from a plot of fGK(C) versus C by a fit to the Hill equation, using a custom program written in the IGOR-Pro software (WaveMetrics, Lake Oswego, OR, USA). All IC50-values are reported in μM.

Data set [2] is described as follows: physchem. The following applies: for solubility at 16 h: 25 °C, pH 7.4, aqueous buffer, kinetic from dmso stock. On the procedure:
2.79 g of K2HPO4 and 0.54 g of KH2PO4 was dissolved in 390 mL of milliQ water. pH was adjusted to 7.4 using 1N HCl/1N NaOH and final volume was made up to 400 mL with milliQ water.
In case of compounds not soluble/less quantity submission, 40/20/10Mm stocks were prepared and used for experiment.
Assay Procedure: • 245 μL of 50 mM phosphate buffer then 5 μL each of test compound/standards (80 mM) in their respective positions was added to the 1.1 mL 96 well plate. • DMSO Controls was prepared by taking 245 μL of 100% DMSO then 5 μL each of test compound in their respective positions and added to the 1.1 mL 96 well plate • Plate was incubated with mixing at 1600 RPM for 16 hours at room temperature (˜23 MC). • After incubation, samples were filtered using Millipore plates. • Filtrates were analysed by HPLC-UV.
Solubility is calculated using the following formula: […]

Setting [3] is: 50 mM potassium phosphate buffer pH 7.40, 16 hr at ~25° C., incubation concentration 1600 μM.

For the compound `COC(=O)N1CC(N(C(=O)OC)C2(c3ccc(F)c(C(F)(F)F)c3)CC2)C1` [Methyl 3-((1-(4-fluoro-3-(trifluoromethyl)phenyl)cyclopropyl) (methoxycarbonyl)amino)azetidine-1-carboxylate], the IC50 in data set [1] was under 0.3 µM. The solubility at 16 h in data set [2] was 27.9 µg/mL and 100 µM.
Regarding `N[C@H]1CCC[C@H]1NC1(c2ccc(F)c(C(F)(F)F)c2)CC1` [(1R,2S)-N1-(1-(4-fluoro-3-(trifluoromethyl)phenyl)cyclopropyl)-cyclopentane-1,2-diamine], in data set [1], the concentration for half-maximal inhibition (IC50) was under 0.3 µM. Moreover, the solubility at 16 h in data set [2] is 480 µg/mL and 1400 µM.
Regarding `COC(=O)N(CC(C)(C)N)C1(c2cc(C(F)(F)F)c(F)cn2)CC1` [Methyl (2-amino-2-methylpropyl)(1-(5-fluoro-4-(trifluoromethyl)pyridin-2-yl)cyclopropyl) carbamate], the 50% inhibitory concentration (IC50) in data set [1] was under 1 µM. In addition, in data set [2] (setting [3]), the “Measured Solubility in pH 7.4 phosphate buffer (mg/ml)” value (“Measured Solubility … (mg/ml)” below) is 0.5636 mg/ml and the “Measured Solubility in pH 7.4 phosphate buffer (μM)” value (“Measured Solubility … (μM)” for short) stood at 1500 μM.
In the case of `COC(=O)N(C[C@@H]1CCCN1C)C1(c2ccc(F)c(C(F)(F)F)c2)CC1` [Methyl (S)-(1-(4-fluoro-3-(trifluoromethyl)phenyl)cyclopropyl) ((1-methylpyrrolidin-2-yl)methyl) carbamate], the half-inhibitory concentration (IC50) in data set [1] was under 0.3 µM. Besides, in data set [2] (setting [3]), the “Measured Solubility … (mg/ml)” value came out at 0.5918 mg/ml and the “Measured Solubility … (μM)” value is reported as 1600 μM.
For the compound `COC(=O)N(CC(C)(C)N)C1(c2cc(Cl)cc(Cl)c2)CC1` [Methyl (2-amino-2-methylpropyl)(1-(3,5-dichlorophenyl)cyclopropyl)carbamate], the half-inhibitory concentration (IC50) in data set [1] is under 0.3 µM. Also, the solubility at 16 h in data set [2] is 578 µg/mL and 1600 µM.
As to `COC(=O)N(CCN(C)C)C1(c2ccc(F)c(C(F)(F)F)c2)CC1` [Methyl N-(2-(dimethylamino)ethyl)-N-(1-(4-fluoro-3-(trifluoromethyl)phenyl)cyclopropyl) carbamate], in data set [1], the concentration for half-maximal inhibition (IC50) is under 1 µM. Besides, in data set [2] (setting [3]), the “Measured Solubility … (mg/ml)” value turned out to be 0.5409 mg/ml and the “Measured Solubility … (μM)” value was 1600 μM.
`O=C(OC1CC1)N(C[C@@H]1CCCN1)C1(c2ccc(F)c(C(F)(F)F)c2)CC1` [Cyclopropyl (S)-(1-(4-fluoro-3-(trifluoromethyl)phenyl)cyclopropyl)(pyrrolidin-2-ylmethyl)carbamate]: the IC50 in data set [1] was under 0.3 µM. The solubility at 16 h in data set [2] is 601 µg/mL and 1600 µM.
For `CC(C)(N)CN(C1CC1)C1(c2cccc(C(F)(F)F)c2)CC1` [N1-cyclopropyl-2-methyl-N1-(1-(3-(trifluoromethyl)phenyl)cyclopropyl)propane-1,2-diamine], the IC50 in data set [1] is under 0.3 µM. Further, the solubility at 16 h in data set [2] is 481 µg/mL and 1400 µM.
With `CC(C)(N)CN(CC1CC1)C1(c2ccc(F)c(C(F)(F)F)c2)CC1` [N1-(cyclopropylmethyl)-N1-(1-(4-fluoro-3-(trifluoromethyl)phenyl)cyclopropyl)-2-methyl propane-1,2-diamine], the IC50 in data set [1] was under 0.3 µM. Further, in data set [2], the solubility at 16 h was 511 µg/mL and 1500 µM.
For the compound `CC(C)OC(=O)N(C[C@@H]1CCCN1)C1(c2ccc(F)c(C(F)(F)F)c2)CC1` [Isopropyl (S)-(1-(4-fluoro-3-(trifluoromethyl)phenyl)cyclopropyl)(pyrrolidin-2-ylmethyl)carbamate], the IC50 in data set [1] was under 0.3 µM. In data set [2], the solubility at 16 h was 615 µg/mL and 1600 µM.
Take `CCOC(=O)N(C[C@@H]1CCCN1C)C1(c2ccc(F)c(C(F)(F)F)c2)CC1` [Ethyl (S)-(1-(4-fluoro-3-(trifluoromethyl)phenyl)cyclopropyl)((1-methylpyrrolidin-2-yl)methyl) carbamate]: in data set [1], the IC50 was under 0.3 µM. In addition, in data set [2] (setting [3]), the “Measured Solubility … (mg/ml)” value is 0.5679 mg/ml and the “Measured Solubility … (μM)” value is 1500 μM.
Take `COC(=O)N(C[C@H]1COCCN1C)C1(c2ccc(F)c(C(F)(F)F)c2)CC1` [Methyl (S)-(1-(4-fluoro-3-(trifluoromethyl)phenyl)cyclopropyl)((4-methylmorpholin-3-yl)methyl)carbamate]: the IC50 in data set [1] was under 0.3 µM. In addition, the solubility at 16 h in data set [2] is 600 µg/mL and 1500 µM.
As for `CCOC(=O)N(C[C@H]1CCCN1)C1(c2ccc(F)c(C(F)(F)F)c2)CC1` [Ethyl (R)-(1-(4-fluoro-3-(trifluoromethyl)phenyl)cyclopropyl)(pyrrolidin-2-ylmethyl)carbamate], the IC50 in data set [1] is under 0.3 µM. For the same compound, the solubility at 16 h in data set [2] is 616 µg/mL and 1500 µM.
In the case of `CC(C)(N)CN(C(=O)C1CC1)C1(c2ccc(F)c(C(F)(F)F)c2)CC1` [N-(2-amino-2-methylpropyl)-N-(1-(4-fluoro-3-(trifluoromethyl)phenyl)cyclopropyl)cyclopropanecarboxamide], in data set [1], the IC50 is under 1 µM. For the same compound, in data set [2], the solubility at 16 h is 582 µg/mL and 1200 µM.
In the case of `COC(=O)N(C[C@]1(C)CCCN1)C1(c2ccc(F)c(C(F)(F)F)c2)CC1` [Methyl (S)-(1-(4-fluoro-3-(trifluoromethyl)phenyl)cyclopropyl)((2-methylpyrrolidin-2-yl)methyl)carbamate], in data set [1], the IC50 is under 0.3 µM. Further, in data set [2], the solubility at 16 h is 575 µg/mL and 1400 µM.
In the case of `O=C1CSc2ccccc2N1Cc1cccc(C(F)(F)F)c1` [NS6180, 4-[[3-(Trifluoromethyl)-phenyl]methyl]-2H-1,4-benzothiazin-3(4H)-one, reference compound], the solubility at 16 h in data set [2] is 2.8 µM and 0.9 µg/mL. Also, the “Measured Solubility … (μM)” value in data set [2] (16 h, pH 7.4) worked out at 2.8 μM.
As for `CC(C)(N)CN(C1(c2ccc(F)c(C(F)(F)F)c2)CC1)S(C)(=O)=O` [N-(2-amino-2-methylpropyl)-N-(1-(4-fluoro-3-(trifluoromethyl)phenyl)cyclopropyl)methanesulfonamide], the IC50 in data set [1] was under 0.3 µM. Moreover, the solubility at 16 h in data set [2] is 565 µg/mL and 1500 µM.
`COC(=O)N(CC1CCN1)C1(c2ccc(F)c(C(F)(F)F)c2)CC1` (centres unmarked) [Methyl (azetidin-2-ylmethyl)(1-(4-fluoro-3-(trifluoromethyl)phenyl)cyclopropyl)carbamate]: in data set [1], the IC50 is under 0.3 µM. The solubility at 16 h in data set [2] was 687 µg/mL and 1500 µM.
As for `COC(=O)N(CC(C)(C)N)C1(c2cccc(Br)c2)CC1` [Methyl (2-amino-2-methylpropyl)(1-(3-bromophenyl)cyclopropyl)carbamate], the concentration for half-maximal inhibition (IC50) in data set [1] was under 1 µM. Moreover, the solubility at 16 h in data set [2] is 376 µg/mL and 800 µM.
Regarding `CN1CCC[C@H]1CN(C1(c2ccc(F)c(C(F)(F)F)c2)CC1)S(C)(=O)=O` [(S)-N-(1-(4-fluoro-3-(trifluoromethyl)phenyl)cyclopropyl)-N-((1-methylpyrrolidin-2-yl)methyl)methanesulfonamide], the half-inhibitory concentration (IC50) in data set [1] is under 0.3 µM. Also, the solubility at 16 h in data set [2] is 621 µg/mL and 1600 µM.
`CN1CCC1CN(CC(C)(C)O)C1(c2ccc(F)c(C(F)(F)F)c2)CC1` (centres unmarked) [1-((1-(4-fluoro-3-(trifluoromethyl)phenyl)cyclopropyl)((1-methylazetidin-2-yl)methyl)amino)-2-methylpropan-2-ol]: the IC50 in data set [1] is under 1 µM. Further, the solubility at 16 h in data set [2] was 597 µg/mL and 1600 µM.
In the case of `COC(=O)N(CC(C)(C)N)C1(c2ccc(F)c(OC(F)(F)F)c2)CC1` [Methyl (2-amino-2-methylpropyl)(1-(4-fluoro-3-(trifluoromethoxy)phenyl)cyclopropyl)carbamate], the half-inhibitory concentration (IC50) in data set [1] is under 0.3 µM. Moreover, in data set [2], the solubility at 16 h was 584 µg/mL and 1500 µM.
`COC(=O)N(C[C@H]1CCCN1)C1(c2ccc(F)c(C(F)(F)F)c2)CCC1` [methyl N-{1-[4-fluoro-3-(trifluoromethyl)phenyl]cyclobutyl}-N-{[(2R)-pyrrolidin-2-yl]methyl}carbamate]: the IC50 in data set [1] was under 0.3 µM.
Regarding `CC(C)(N)CNC1(c2ccc(F)c(C(F)(F)F)c2)CCC1` [N1-{1-[4-fluoro-3-(trifluoromethyl)phenyl]cyclobutyl}-2-methylpropane-1,2-diamine], the IC50 in data set [1] is under 0.3 µM.
